Experimental data: PMC3098202, “Inhibition of Both HIV-1 Reverse Transcription and Gene Expression by a Cyclic Peptide that Binds the Tat-Transactivating Response Element (TAR) RNA” (PLoS Pathogens, 2011)
Like-named read-outs stand apart in the source and are kept apart here. Peptide text beside a SMILES is read from it.

Tests used:
HIV-1NL4-3 [1] = experiment: Inhibition of HIV-1 NL4-3 replication in U87.CD4.CXCR4 cells (RT activity in supernatant); assay type: cell-based
Experimental: Drug sensitivity assays were performed on U87.CD4.CXCR4/CCR5 cells and in peripheral blood mononuclear cells (PBMC). Peptidomimetics or control drugs were added to cells to yield final concentrations between 100 µM and 10 nM. Cells were incubated with drug for 1 h and exposed to the virus at a multiplicity of infection of 0.001, incubated with the virus for 24 h, and input virus washed away. Supernatant aliquots were removed and virus production was quantified by reverse transcriptase assay. Virus production at each drug concentration was normalized and the relative values were plotted versus drug concentration to determine 50% inhibitory concentrations (IC50). Variations on these drug susceptibility assays are defined in each figure and related text. For the time-of-drug-inhibition experiments, HIV-1 was spinonculated onto U87-CD4/CCR5 cells as previously described. The cells were washed twice with cold phosphate buffered saline (PBS) to remove unbound virions. Cells were resuspended in cold medium and split into 96-well plates (50 µl/well). […] Cells were incubated for 72 h and then treated with lysis buffer and luciferase activity was determined. The same procedure was utilized for the time-of-drug-addition experiment involving cell-to-cell fusion. […]

HIV NL4-3 = experiment: Inhibition of HIV NL4-3 in PHA/IL-2 stimulated human PBMC; assay type: cell-based, HIV-1; conditions: Human immunodeficiency virus 1, NL43; human PBMC stimulated with PHA/IL-2; RT activity in supernatant at 8 and 10 days post-infection
Experimental: Figure 2 Testing the susceptibility of HIV-1 to inhibition by Tat peptidomimetics. (A) Comparison of the relative inhibition of the HIV-1 NL4-3 laboratory strain by three lead Tat peptidomimetics. Virus production in cell free supernatant was measured using an endogenous RT assay. […] (D) L-50 inhibition of viral replication of three primary CCR5-tropic HIV-1 isolates measured in U87.CD4.CCR5 cells (A1 is the subtype A Rawandan isolate A1-92RW009, B5 is the subtype B isolate B5-91US056 from the USA and C5 is the subtype C isolate C5-97ZA003 from South Africa) and of CXCR4-tropic strains (D1 is the Ugandan subtype D isolate D1-92UG021, E6 is the subtype A/E circulating recombinant isolate CRF01_AE from Thailand) as well as the laboratory strain HIV-1NL4-3 measured in U87.CD4.CXCR4 cell cultures. […] (E) Inhibition of HIV NL4-3 was also measure in human peripheral blood mononuclear cells stimulated with PHA/IL-2. […] Virus production was measured at 8 and 10 days post-infection by the RT activity in the supernatant (cpm/mL).
Drug sensitivity assays were performed on U87.CD4.CXCR4/CCR5 cells and in peripheral blood mononuclear cells (PBMC). […] Supernatant aliquots were removed and virus production was quantified by reverse transcriptase assay. […] Cells were incubated for 72 h and then treated with lysis buffer and luciferase activity was determined. […]

HIV-1Luc-AM = assay type: cell-based
[2] = tested on: murine leukemia virus (MLV); assay type: cell-based
[3] = tested on: HIV-1NL4-3 carrying firefly luciferase; assay type: cell-based; conditions: for t1/2, time of drug addition that maintains 50% inhibition: AMD3100 10 µM, T20 10 µM, 3TC 100 µM, Raltegravir 10 µM, DRB 50 µM
[4] = tested on: Tat/Rev-dependent luciferase after 293T (HIV-1 Env) / U87.CD4.CXCR4 cell fusion; conditions: for t1/2, time of drug addition that maintains 50% inhibition, cell-to-cell fusion: monophasic, Tat/Rev-dependent luciferase in cell lysates, triplicate
[5] = tested on: Tat-dependent transcription from HIV-1 LTR; experiment: Tat-dependent transactivation in cell-free transcription; assay type: biochemical
[6] = tested on: Tat-mediated transactivation of HIV-1 LTR; experiment: LTR-luciferase reporter + Tat in 293T cells (Figure 3B); assay type: cell-based; conditions: 10 µM
CMV promoter = CMV promoter luciferase control reporter in 293T cells; assay type: cell-based
HIV-1 LTR promoter = experiment: pLTR.LUC reporter alone or co-transfected with HIV-1NL4-3 in 293T cells (Figure 4); assay type: cell-based
HIV-1NL4-3 [7] = experiment: Infection of U87.CD4.CXCR4 cells with supernatants of L-50-treated 293T transfections (Figure 4D); assay type: cell-based
Experimental: To test whether the virus released from transfected cells could be inhibited by L-50 under conditions of multiple-cycle growth, virus-containing supernatants from 293T transfections (containing L-50) were used to infect U87.CD4.CXCR4 cells (which support multiple rounds of HIV-1 replication) and viral progeny were measured 10 days post-infection. […] Removal of L50 from virus was attempted by pelleting virus from supernatant of L50-treated cells transfected with NL4-3. It is important to note that virus production was already decreased by L50 at least 50% from transfected cells.

[8] = tested on: (-) strand strong stop DNA synthesis by recombinant HIV-1 RT (p66/p51) on wild type TAR template; experiment: Reconstituted in vitro reverse transcription, wild type R_U5_pbs RNA template; assay type: biochemical
Text: This assay measures the synthesis of (-) strand strong stop DNA by recombinant HIV-1 RT (p66/p51) from an 18 nt DNA primer, pre-annealed to an HIV-1 RNA template encompassing the repeat (R), 5′ unique sequence (U5), and the primer binding sequence (PBS) [49].
HIV-1 RNA representing the wild type R, U5, pbs, and uncoding sequence (270 nt) (wt R_U5_pbs RNA) was produced by in vitro T3 transcription (T3 MegaScript, Ambion) from a PCR product (with T3 extended primer) derived from NL4-3. […] The DNA primer (18 nt), complementary to the primer binding sequence (3′ end of tRNA^Lys,3), was annealed to the template as described [78]. The DNA primer was annealed to the various HIV-1 RNA templates by denaturation and annealing conditions previously described [78]. […] Reactions were incubated at 37°C for 45 min and then quenched with formamide EDTA loading buffer [78] for subsequent electrophoresis on a 8% denaturing polyacrylamide gel. Gels were autoradiographed and analyzed with a BioRad phosphorimager.

[9] = tested on: (-) strand strong stop DNA synthesis by HIV-1 RT on mutant TAR template; experiment: Reconstituted in vitro reverse transcription, mutant TAR RNA template; assay type: biochemical; conditions: 8 µM
Text: To determine if L-50 inhibition of reverse transcription was dependent on the high affinity Tat-binding site located at the TAR bulge, mutations that inactivate Tat-binding were introduced into the RNA template (Figure 9A).
The mutant TAR RNA transcript (with mutations 5′-UCUG-3′ to 5′-UGGU-3′ in the bulge) was generated by T3 transcription from a PCR product with the forward primer having the nt substitutions for site-directed mutagenesis. […] The DNA primer (18 nt), complementary to the primer binding sequence (3′ end of tRNA^Lys,3), was annealed to the template as described [78]. The DNA primer was annealed to the various HIV-1 RNA templates by denaturation and annealing conditions previously described [78]. […] Reactions were incubated at 37°C for 45 min and then quenched with formamide EDTA loading buffer [78] for subsequent electrophoresis on a 8% denaturing polyacrylamide gel. Gels were autoradiographed and analyzed with a BioRad phosphorimager.

HIV-1 TAR = conditions: cited from earlier work
Text: Linear peptide derivatives have been used previously to target TAR RNA and block Tat binding, [17], [20], [21] but their utility was limited by conformational flexibility which allowed non-specific RNA binding. To avoid this problem we have developed conformationally constrained mimics of HIV-1 Tat [24]–[27] based on the structure of the BIV (Bovine Immunodeficiency Virus) Tat-TAR complex, [29] (Figure 1). Specifically, we constructed a series of ß-hairpin mimics with 12-residue loops on a heterochiral D-Pro-L-Pro dipeptide scaffold. This D-Pro-L-Pro scaffold strongly ... || Our design of inhibitors of the TAR RNA-Tat protein interaction started with the assumption that constrained peptidomimetics would provide effective rationale to block the relatively large interfaces formed between the viral protein and its cognate RNA [24]–[27]. The D-Pro-L-Pro template restricts pharmacophores into planar ß-hairpin structures with side chains emerging from each side. […] Specific and high affinity binding allow ...

BIV TAR RNA = conditions: Discussion; cited from earlier work
Text: Our design of inhibitors of the TAR RNA-Tat protein interaction started with the assumption that constrained peptidomimetics would provide effective rationale to block the relatively large interfaces formed between the viral protein and its cognate RNA [24]–[27]. The D-Pro-L-Pro template restricts pharmacophores into planar ß-hairpin structures with side chains emerging from each side. […] Specific and high affinity binding allow ...

[10] = tested on: HIVNL4-3 transcription / virus production; experiment: Single-cycle growth assay, 293T cells transfected with pNL4-3 (Figure 3C); conditions: 50 µM; 293T cells transfected with HIVNL4-3; monitored by RT activity
[11] = tested on: HIV-1NL4-3 carrying firefly luciferase; conditions: cited from earlier work
Text: There is also evidence that Tat plays a role in viral reverse transcription, although much of this work has been controversial. Loss of function Tat mutants have been reported to impair reverse transcription 3- to 5-fold compared to wild type HIV-1 both in infected T cells and in endogeneous reverse transcription reactions, [69]. Tat-mediated RNA secondary structure remodeling may facilitate obligatory strand transfers during viral DNA synthesis by reverse transcriptase. However, it is possible to create replication-competent viruses where the TAR RNA sequence is replaced by a ...

[12] = U87.CD4.CXCR4 cells, Tat-independent SV40-driven reporter
[13] = synchronized infection, luciferase at 72 h, triplicate
[14] = L50 250 µM, synchronized infection, luciferase at 72 h, triplicate

Nc1ccn([C@@H]2CS[C@H](CO)O2)c(=O)n1 [3TC]
IC50 (HIV-1NL4-3 [1]; Human immunodeficiency virus 1, virus production by RT assay, MOI 0.001): 120 ± 30 nM | IC50 (HIV NL4-3): 10 nM | Luciferase expression in HIV-1Luc-AM infected cells (HIV-1Luc-AM; [12]): efficiently inhibited | Inhibition of MLV replication (words, Discussion) [2]: blocked MLV replication

c1cc(CN2CCCNCCNCCCNCC2)ccc1CN1CCCNCCNCCCNCC1 [AMD3100, reference compound]
t1/2, time of drug addition that maintains 50% inhibition [3, 13]: 0.77 h | Inhibition of cell-to-cell fusion [4]: highly sensitive to inhibition

Cc1cn([C@H]2C[C@H](N=[N+]=[N-])[C@@H](CO)O2)c(=O)[nH]c1=O [AZT]
Inhibition of MLV replication (words, Discussion) [2]: blocked MLV replication | Inhibition of MLV replication ([2]; 100 µM): completely blocked

OC[C@H]1O[C@@H](n2cnc3cc(Cl)c(Cl)cc32)[C@H](O)[C@@H]1O [DRB, 5,6-dichloro-1-ß-D-ribobenzimidazole, reference compound]
t1/2, time of drug addition that maintains 50% inhibition [3, 13]: 35.3 h | Luciferase expression in HIV-1Luc-AM infected cells (HIV-1Luc-AM; [12]): efficiently inhibited | t1/2, time of drug addition that maintains 50% inhibition, cell-to-cell fusion [4]: 11.3 h

CC[C@H](C)[C@@H]1NC(=O)[C@H](CCCNC(=N)N)NC(=O)[C@H](CCCNC(=N)N)NC(=O)[C@H](CCCCN)NC(=O)CNC(=O)[C@H](CCCNC(=N)N)NC(=O)[C@H]([C@@H](C)O)NC(=O)[C@H](CCCNC(=N)N)NC(=O)[C@H](C(C)C)NC(=O)[C@H](CCCNC(=N)N)NC(=O)[C@@H]2CCCN2C(=O)[C@H]2CCCN2C(=O)[C@H](CCCNC(=N)N)NC(=O)[C@H](CCCNC(=N)N)NC1=O [L-50] (HELM PEPTIDE1{R.V.R.T.R.G.K.R.R.I.R.R.[dP].P}$PEPTIDE1,PEPTIDE1,1:R1-14:R2$$$V2.0)
Inhibition of HIV-1NL4-3 replication (HIV-1NL4-3 [1]; Figure 2A): able to inhibit replication | IC50 ([5]; cell-free transcription, nuclear extract, recombinant Tat, 20 min at 30°C, read-out: IC50, decrease of full-length transcripts (ρ)): 50 nM | Production of short transcripts (τ) ([5]; internal control for non-specific inhibition of transcription): largely unaffected | Reduction of Tat-mediated transactivation [6]: 53% | Reduction of transcription from control CMV promoter (CMV promoter; 10 µM, 293T cells): 12% | Reduction of CMV promoter-driven luciferase activity (CMV promoter; 50 µM, 293T cells cotransfected with HIVNL4-3): less than 5% | CMV promoter-driven luciferase expression with HIV-1NL4-3 (CMV promoter; 293T cells, Figure 4B): not significantly inhibited | Decrease in luciferase expression (pLTR.LUC + HIV-1NL4-3) (HIV-1 LTR promoter; 200 µM, 293T cells, p = 0.03, N = 5): 1.7 fold | HIV-1 virion expression (HIV-1 LTR promoter; 200 µM, RT activity in cell-free supernatant of transfected 293T cells): modest, but reproducible reduction | Luciferase expression in cells transfected with either reporter plasmid alone (HIV-1 LTR promoter; 293T cells, no Tat): did not inhibit | Decrease of virus production from transfected cells (HIV-1NL4-3 [7]; 293T cells transfected with NL4-3): at least 50% | Viral progeny 10 days post-infection (HIV-1NL4-3 [7]; U87.CD4.CXCR4 cells infected with virus made in the presence of L-50): No measurable viral progeny | t1/2, first (early) phase of biphasic inhibition [3, 14]: 1.8 h | t1/2, second (late) phase of biphasic inhibition [3, 14]: 35.7 h | Block of viral replication in the initial inhibitory phase ([3]; added up to approximately 2 h post infection): ~100% | Luciferase expression in HIV-1Luc-AM infected cells (HIV-1Luc-AM): efficiently blocked | Inhibition of MLV [2]: did not inhibit | Inhibition of MLV replication (words, Discussion) [2]: did not | Inhibition of (−) strong stop synthesis on the wild type template ([8]; 8 µM): 80% | IC50 ([8]; read-out: IC50, inhibition of (−) strand strong stop DNA synthesis (as printed in picture of Figure 8B)): 5500 ± 570 nM | IC50 ([8]; recombinant HIV-1 RT, 18 nt DNA primer, RNA template ∼2 µM, 37°C 45 min, triplicate, read-out: IC50, inhibition of (−) strand strong stop DNA synthesis): 5500 ± 570 nM | Inhibition of (−) strong stop DNA synthesis on template with mutations in the TAR L-50 binding site [9]: less than 10% | Affinity for HIV-1 TAR (HIV-1 TAR; Discussion): nanomolar affinities | Kd (HIV-1 TAR; in vitro): 1 nM | Inhibition of cell-to-cell fusion [4]: no measurable inhibition | t1/2, time of drug addition that maintains 50% inhibition, cell-to-cell fusion [4]: 8.2 h | Discrimination against BIV TAR RNA sequence (BIV TAR RNA): effectively discriminated | Inhibition of production of the viral RNA [10]: 76%

Cc1ccnc2c1NC(=O)c1cccnc1N2C1CC1 [NVP]
IC50 (HIV NL4-3): 65 nM | t1/2 of nevirapine in time-of-drug-addition [11]: ~7 h

Cc1nnc(C(=O)NC(C)(C)c2nc(C(=O)NCc3ccc(F)cc3)c(O)c(=O)n2C)o1 [Raltegravir, reference compound]
t1/2, time of drug addition that maintains 50% inhibition [3, 13]: 11.5 h
